Consider one sequence from article PMC12363211, “Rationally designed self-assembled peptide nanofibers provoke robust humoral immunity against nervous necrosis virus” (Journal of Virology, 2025).

Marks after values point to notes of the source that are not given here.

The nature of series [1]: Nanofiber self-assembly and morphology (TEM). It counts as physicochemical. As to conditions: in the salts (pH = 7). The method, then:
CP^64-83-Q11 nanofiber synthesis and characteristics
Q11, CP^64-83, and CP^64-83-Q11 peptides were synthesized and purified by Genecreate Co. (Wuhan). […] The morphology of the CP^64-83-Q11 was determined by transmission electron microscopy (TEM) using a Hitachi Model H-7700 microscope (Hitachi, Japan). The particle size of reassembled CP^64-83-Q11 was determined using a Zetasizer (nano ZS90, Malvern Panalytical, UK). The secondary structure of CP^64-83-Q11 nanovaccine was analyzed by circular dichroism (CD) spectra (Chirascan V100, Applied Photophysics, UK).

The subject of another series is grouper. Description: In vivo safety: survival, weight and pathology of vaccinated grouper. As to conditions: i.p. 2 mM, 28-day period. The method, then:
NNV-free pearl gentian grouper (Epinephelus lanceolatus × Epinephelus fuscoguttatus) juveniles (5.12 ± 0.63 g) were purchased from a commercial fish farm (Wenchang, Hainan, China). Real-time quantitative polymerase chain reaction (qPCR) was used to detect NNV in purchased fish. Primers of NNVdetection F: […] and NNVdetection R: […] were used for NNV detection. Grouper were reared in a recirculating water system with filtered seawater at 28.0 ± 1.0°C. Each tank contains 50 L seawater with continuous aeration. Fish were fed twice daily and acclimated for 15 days before experiments.
Safety evaluation of the CP^64-83-Q11 nanofiber
The safety evaluation of the synthesized nanofiber was assessed using in vitro and in vivo models. For the in vitro cytotoxicity evaluation, the standard MTT assay was employed. GF-1 cells and grouper macrophages were seeded into 96-well plates at a density of 5 × 10⁵ cells per well. These cells were then exposed to varying concentrations (1, 5, 10, 20, and 40 µg/mL) of Q11, CP^64-83, CP, or CP^64-83-Q11 for 24 h. […] Absorbance was then measured at 490 nm using a microplate reader. Cell viability was calculated as follows: Cell viability = (ODtreatment group − ODblank)/(ODcontrol group − ODblank) × 100%. […] Additionally, the initial and final weights of the fish were monitored throughout the 28-day period.

In the case of “QQKFQFQFEQQ [Q11, Q11 peptide (…), a minimalist self-assembling motif]”, the self-assembly into nanofibers result in series [1] is reported as “could self-assemble into nanofibers in the salts (pH = 7)”. Moreover, the Survival rate in the series on grouper (unchallenged vaccinated grouper, 78 fish per group, all groups incl. control share letter a) is reported as 98.26 ± 3.37^a %. For the same sequence, in the series on grouper (vaccinated grouper, initial weight 5.12 ± 0.63 g, all groups incl. control (8.96 ± 1.02) share letter a), the Final weight was 8.72 ± 0.56^a g.
